Test results taken from the supplement of paper PMC9013687.

Experiments:
Danio rerio embryo [1] = assay: EC20 Heart rate; higher = less potent; details: exposure time: 4 dpf
Protocol: (§1)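 Zebrafish embryos (UFZ-OBI strain) were exposed from 2 hpf for 48 h (2 dpf) or 96 h (4 dpf) at 28 °C; spontaneous tail coiling was scored at 25 hpf. Morphological features from automated image analysis (FishInspector), heart rate and locomotor response were fitted with drc models. Quantal endpoints were dichotomised at 2.5 SD from controls and fitted with a log-logistic model; heart rate, pigmentation and STC were normalised to the replicate control mean. Betamethasone was tested as betamethasone dipropionate, diflorasone as diflorasone diacetate.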

Danio rerio embryo [2] = assay: EC20 Eye size_Decrease; higher = less potent; details: exposure time: 2 dpf
Protocol: as §1

Danio rerio embryo [3] = assay: EC10 Eye size_Decrease; higher = less potent; details: exposure time: 2 dpf
Protocol: as §1

Danio rerio embryo [4] = assay: EC10 Curvature_Increase; higher = less potent; details: exposure time: 2 dpf
Protocol: as §1

Danio rerio embryo [5] = assay: EC20 Curvature_Increase; higher = less potent; details: exposure time: 2 dpf
Protocol: as §1

Danio rerio embryo [6] = assay: EC20 Body length_Decrease; higher = less potent
Protocol: as §1

Danio rerio embryo [7] = assay: EC10 Body length_Decrease; higher = less potent
Protocol: as §1

Danio rerio embryo [8] = assay: EC10 Pigmentation increase; higher = less potent; details: exposure time: 4 dpf
Protocol: as §1

Danio rerio embryo [9] = assay: EC10 Bladder size_Decrease; higher = less potent; details: exposure time: 4 dpf
Protocol: as §1

Danio rerio embryo [10] = assay: EC20 Pigmentation increase; higher = less potent; details: exposure time: 4 dpf
Protocol: as §1

Danio rerio embryo [11] = assay: EC20 Bladder size_Decrease; higher = less potent; details: exposure time: 4 dpf
Protocol: as §1

Danio rerio embryo [12] = assay: EC20 Yolk sac size_Increase; higher = less potent; details: exposure time: 4 dpf
Protocol: as §1

Danio rerio embryo [13] = assay: EC20 Pericard size_Increase; higher = less potent; details: exposure time: 2 dpf
Protocol: as §1

Danio rerio embryo [14] = assay: EC10 Yolk sac size_Increase; higher = less potent; details: exposure time: 4 dpf
Protocol: as §1

Danio rerio embryo [15] = assay: EC10 Pericard size_Increase; higher = less potent; details: exposure time: 2 dpf
Protocol: as §1

Danio rerio embryo [16] = assay: EC20 Eye-jaw distance_Decrease; higher = less potent; details: exposure time: 4 dpf
Protocol: as §1

Danio rerio embryo [17] = assay: EC10 Eye-jaw distance_Decrease; higher = less potent; details: exposure time: 4 dpf
Protocol: as §1

Danio rerio embryo [18] = assay: spontaneous tail coiling frequency (coils/min/embryo); higher = more spontaneous movement; details: 25 hpf
Protocol: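 Spontaneous tail coilings of zebrafish embryos exposed from 2 hpf were recorded at 24-25 hpf in 1-min videos and detected by a KNIME workflow from grey-value variance. Betamethasone was tested as the dipropionate, diflorasone as the diacetate.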

CC1(C)OC(=O)C(OCC2CC2)=C1c1ccc(S(C)(=O)=O)cc1 [Firocoxib]
Details | EC10 Bladder size Decrease [µM] | EC10 Curvature Increase [µM] | EC10 Eye size Decrease [µM] | EC10 Eye-jaw distance Decrease [µM] | EC10 Pericard size Increase [µM] | EC10 Pigmentation increase [µM] | EC10 Yolk sac size Increase [µM] | EC20 Bladder size Decrease [µM] | EC20 Curvature Increase [µM] | EC20 Eye size Decrease [µM] | EC20 Eye-jaw distance Decrease [µM] | EC20 Heart rate [µM] | EC20 Pericard size Increase [µM] | EC20 Pigmentation increase [µM] | EC20 Yolk sac size Increase [µM]
Danio rerio embryo [1] | – | – | – | – | – | – | – | – | – | – | – | 38.8 | – | – | –
Danio rerio embryo [2] | – | – | – | – | – | – | – | – | – | 93.3 | – | – | – | – | –
Danio rerio embryo [3] | – | – | 77.4 | – | – | – | – | – | – | – | – | – | – | – | –
Danio rerio embryo [4] | – | 74.2 | – | – | – | – | – | – | – | – | – | – | – | – | –
Danio rerio embryo [5] | – | – | – | – | – | – | – | – | 85.4 | – | – | – | – | – | –
Danio rerio embryo [8] | – | – | – | – | – | 83 | – | – | – | – | – | – | – | – | –
Danio rerio embryo [9] | 31.5 | – | – | – | – | – | – | – | – | – | – | – | – | – | –
Danio rerio embryo [10] | – | – | – | – | – | – | – | – | – | – | – | – | – | 100 | –
Danio rerio embryo [11] | – | – | – | – | – | – | – | 39 | – | – | – | – | – | – | –
Danio rerio embryo [12] | – | – | – | – | – | – | – | – | – | – | – | – | – | – | 68.9
Danio rerio embryo [13] | – | – | – | – | – | – | – | – | – | – | – | – | 58.3 | – | –
Danio rerio embryo [14] | – | – | – | – | – | – | 48.1 | – | – | – | – | – | – | – | –
Danio rerio embryo [15] | – | – | – | – | 40.6 | – | – | – | – | – | – | – | – | – | –
Danio rerio embryo [16] | – | – | – | – | – | – | – | – | – | – | 93.2 | – | – | – | –
Danio rerio embryo [17] | – | – | – | 79.2 | – | – | – | – | – | – | – | – | – | – | –

Details | EC10 Body length Decrease [µM] | EC20 Body length Decrease [µM] | spontaneous tail coiling frequency
Danio rerio embryo [6], exposure time: 2 dpf | – | 82.7 | –
Danio rerio embryo [6], exposure time: 4 dpf | – | 94.5 | –
Danio rerio embryo [7], exposure time: 2 dpf | 70.3 | – | –
Danio rerio embryo [7], exposure time: 4 dpf | 85 | – | –
Danio rerio embryo [18], 14.9 µM | – | – | 2.83
Danio rerio embryo [18], 29.7 µM | – | – | 2.54
Danio rerio embryo [18], 59.4 µM | – | – | 3.5
Danio rerio embryo [18], 59.5 µM | – | – | 2.46
Danio rerio embryo [18], 89.2 µM | – | – | 2.31
Danio rerio embryo [18], 104 µM | – | – | 3
Danio rerio embryo [18], 133.8 µM | – | – | 3.06
